# “Also recorded” adds a separate entry of the source. Bridge positions count the residues as written; N and C are the ends. Square brackets hold non-standard residues; d marks the D form. Peptide text beside a SMILES is read from it. R8 = C=CCCCCCC[C@@](C)(N)C(=O)O; S5 = C=CCCC[C@](C)(N)C(=O)O; Nle = CCCC[C@H](N)C(=O)O
# Experiments:
# [1] = Circular dichroism, α-helicity; type: physicochemical; settings: in solution
# Procedure: Assays to Determine α-Helicity: Compounds are dissolved in an aqueous solution (e.g., 5 mM potassium phosphate solution at pH 7, or distilled H2O, to concentrations of 25-50 μM). Circular dichroism (CD) spectra are obtained on a spectropolarimeter (e.g., Jasco J-710, Aviv) using standard measurement parameters (e.g., temperature, 20° C.; wavelength, 190-260 nm; step resolution, 0.5 nm; speed, 20 nm/sec; accumulations, 10; response, 1 sec; bandwidth, 1 nm; path length, 0.1 cm). The α-helical content of each peptide is calculated by dividing the mean residue ellipticity by the reported value for a model helical decapeptide (Yang et al., Methods Enzymol. 130:208 (1986)).
# Circular Dichroism: Acetylated peptides were dissolved in 10% (vol/vol) acetonitrile in water for circular dichroism analyses, performed on an Aviv Biomedical spectrophotometer, as reported (see Bird et. al., Methods in Enzymol., 446:369-386 (2008)).
# [2] = biological target: T1, deubiquitinase enzyme USP7 (Homo sapiens, UniProt Q93009); test: Deubiquitination of p53 by USP7 in the reconstitution assay; type: biochemical; settings: peptide 30 μM
# T1 construct: purchased BostonBiochem E-519
# Procedure: In Vitro Ubiquitin Pathway Reconstitution Assay: Reactions containing recombinant His-p53 (0.1 μM), in the presence or absence of peptide (30 μM), UBA1 (0.1 μM), UBE2D (1 μM), HDM2 (1 μM), ubiquitin (1 μM) and ATP (10 mM) (all Boston Biochem K-200B), preactivated Ub-UBEA2 (3 μM) (Boston Biochem E2-802), and USP7 (1 μM) (BostonBiochem E-519), as indicated, were mixed and incubated for 2 h at 37° C. in a final volume of […] followed by denaturation by boiling in SDS-containing loading dye for 10 min at 90° C. Samples were resolved by […] gel electrophoresis and transferred to nitrocellulose membrane. Membranes were blocked with 3% milk for 1 h, incubated overnight in PBS containing 3% BSA and mouse p53 antibody (Boston Biochem K-200B) at a 1:1000 dilution, washed in PBS containing 0.1% Tween-20, and then incubated in PBS containing 3% BSA and anti-mouse secondary antibody (BioRad AAC10P) at a 1:5000 dilution for 1 hour at room temperature. Membranes were again washed in PBS containing 0.1% Tween-20 and imaged using Amersham ECL Prime (GE Life Sciences) on an Amersham Imager 680 (GE Life Sciences).
# [3] = biological target: T2, UBA1 (Homo sapiens, UniProt P22314); test: Fluorescence polarization binding assay; settings: presence and absence of ubiquitin and ATP
# T2 sequence (P22314 1-1058): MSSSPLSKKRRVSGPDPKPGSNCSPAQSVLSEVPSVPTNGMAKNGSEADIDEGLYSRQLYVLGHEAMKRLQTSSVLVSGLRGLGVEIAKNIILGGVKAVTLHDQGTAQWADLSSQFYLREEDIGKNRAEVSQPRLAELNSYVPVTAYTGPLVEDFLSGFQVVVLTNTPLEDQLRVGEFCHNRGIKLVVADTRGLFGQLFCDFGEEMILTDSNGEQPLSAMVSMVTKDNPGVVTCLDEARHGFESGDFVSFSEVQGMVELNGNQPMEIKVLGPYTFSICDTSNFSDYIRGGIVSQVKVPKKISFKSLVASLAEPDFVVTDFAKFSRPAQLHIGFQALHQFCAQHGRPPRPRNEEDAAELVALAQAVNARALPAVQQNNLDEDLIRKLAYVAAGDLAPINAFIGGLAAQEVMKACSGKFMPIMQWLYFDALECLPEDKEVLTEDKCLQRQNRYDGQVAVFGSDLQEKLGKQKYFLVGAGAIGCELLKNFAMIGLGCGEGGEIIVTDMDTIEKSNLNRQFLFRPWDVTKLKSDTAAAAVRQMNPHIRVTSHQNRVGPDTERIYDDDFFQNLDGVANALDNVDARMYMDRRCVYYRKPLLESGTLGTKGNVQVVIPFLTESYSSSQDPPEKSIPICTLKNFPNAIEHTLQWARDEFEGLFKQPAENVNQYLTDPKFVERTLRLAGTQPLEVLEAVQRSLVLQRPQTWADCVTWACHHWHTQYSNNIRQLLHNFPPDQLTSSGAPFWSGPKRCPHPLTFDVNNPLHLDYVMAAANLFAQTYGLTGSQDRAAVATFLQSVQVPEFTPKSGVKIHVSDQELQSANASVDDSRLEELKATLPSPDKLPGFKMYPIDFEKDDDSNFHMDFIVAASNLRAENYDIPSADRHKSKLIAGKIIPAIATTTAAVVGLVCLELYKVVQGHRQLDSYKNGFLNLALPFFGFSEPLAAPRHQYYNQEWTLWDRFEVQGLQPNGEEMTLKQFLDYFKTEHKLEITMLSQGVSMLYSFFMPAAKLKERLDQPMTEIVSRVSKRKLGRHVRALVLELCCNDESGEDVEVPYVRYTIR
# Text: (§1) In vitro Binding Assays: To assess the binding and affinity of peptidomimetic macrocycles and peptidomimetic precursors to acceptor proteins, a fluorescence polarization assay (FPA) can be used, for example. The FPA technique measures the molecular orientation and mobility using polarized light and fluorescent tracer. When excited with polarized light, fluorescent tracers (e.g., FITC) attached to molecules with high apparent molecular weights (e.g., FITC-labeled peptides bound to a large protein) emit higher levels of polarized fluorescence due to their slower rates of rotation as compared to fluorescent tracers attached to smaller molecules (e.g., FITC-labeled peptides that are free in solution).
# as §1, with “ligands” for “peptidomimetic macrocycles and peptidomimetic precursors”
# T1 sequence (Q93009 whole entry): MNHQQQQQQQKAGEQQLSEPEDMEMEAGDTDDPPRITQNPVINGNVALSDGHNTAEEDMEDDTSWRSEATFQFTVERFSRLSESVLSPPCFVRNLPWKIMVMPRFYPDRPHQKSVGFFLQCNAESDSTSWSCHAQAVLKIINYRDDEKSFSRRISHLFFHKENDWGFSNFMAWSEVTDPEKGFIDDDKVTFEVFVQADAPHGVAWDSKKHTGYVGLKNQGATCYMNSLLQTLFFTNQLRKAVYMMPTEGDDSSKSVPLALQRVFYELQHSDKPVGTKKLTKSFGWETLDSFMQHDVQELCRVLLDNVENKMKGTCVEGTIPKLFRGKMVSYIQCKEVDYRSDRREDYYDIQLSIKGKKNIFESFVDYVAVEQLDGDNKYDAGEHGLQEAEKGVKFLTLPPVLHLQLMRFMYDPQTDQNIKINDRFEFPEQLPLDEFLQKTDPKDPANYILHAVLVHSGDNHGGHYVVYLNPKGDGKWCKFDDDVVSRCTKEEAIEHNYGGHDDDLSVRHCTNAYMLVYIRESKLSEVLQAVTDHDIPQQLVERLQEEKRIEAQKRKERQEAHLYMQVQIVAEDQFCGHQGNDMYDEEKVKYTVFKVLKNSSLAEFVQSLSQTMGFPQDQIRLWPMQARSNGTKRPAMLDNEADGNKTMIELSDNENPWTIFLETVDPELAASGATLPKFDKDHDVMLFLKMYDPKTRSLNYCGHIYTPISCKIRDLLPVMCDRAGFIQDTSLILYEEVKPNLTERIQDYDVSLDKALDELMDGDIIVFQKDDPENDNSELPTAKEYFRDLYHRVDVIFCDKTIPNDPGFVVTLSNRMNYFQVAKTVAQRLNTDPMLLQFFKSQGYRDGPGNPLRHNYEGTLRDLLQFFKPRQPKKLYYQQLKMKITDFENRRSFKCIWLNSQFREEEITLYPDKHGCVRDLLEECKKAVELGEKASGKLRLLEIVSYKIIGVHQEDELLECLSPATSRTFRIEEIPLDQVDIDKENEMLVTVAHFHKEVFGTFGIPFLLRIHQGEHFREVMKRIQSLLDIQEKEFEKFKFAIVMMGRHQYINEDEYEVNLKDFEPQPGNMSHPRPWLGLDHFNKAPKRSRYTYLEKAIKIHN
structure (smiles),measurement,setting,value
"CCCC[C@H](NC(C)=O)C(=O)N[C@@H](CO)C(=O)N[C@H](C(=O)N1CCC[C@H]1C(=O)N[C@]1(C)CCCCCCC=CCCC[C@@](C)(C(=O)N[C@@H](Cc2ccccc2)C(=O)N[C@@H](CCCCN)C(=O)N[C@@H](CCCNC(=N)N)C(=O)N[C@@H](CC(C)C)C(=O)N[C@@H](CCC(N)=O)C(N)=O)NC(=O)[C@H](CCCNC(=N)N)NC(=O)[C@H](CCCC)NC(=O)[C@H](CC(C)C)NC(=O)[C@H](CCCNC(=N)N)NC(=O)[C@H](CCCNC(=N)N)NC(=O)[C@H](CCCNC(=N)N)NC1=O)[C@@H](C)O [SAH-UBE2A-11, BSTPX1RRRLBRX2FKRLQ] (Ac-[Nle]STP[R8]RRRL[Nle]R[S5]FKRLQ-NH2; staple 5-12)",helicity / helical content,[1],54%
same,activity of deubiquitinase USP7 against p53,[2],no effect on the activity of the deubiquitinase enzyme USP7 against p53
same,activity of deubiquitinase USP7 against p53,[2]; listed as SAH-UBE2A,regardless of SAH-UBE2A presence
same,"direct binding to recombinant UBA1, fluorescence polarization",[3],binds to UBA1 independent of ubiquitin and ATP; also recorded: direct binding of SAH-UBE2A to recombinant UBA1

# Source: patent US12358960B2, “Selective targeting of ubiquitin- and ubiquitin-like E1-activating enzymes by structurally-stabilized peptides” (Dana-Farber Cancer Institute, Inc., priority 2019, dated 2025)
